Measurements from patent publication US8377455B2, “Biosurfactant composition produced by a new Bacillus licheniforms strain, uses and products thereof” (priority 2008, dated 2013).
Where two headings read alike, the source gives them in different places.

Key:
[1] = tested on: planktonic E. coli CFT073; assay: Susceptibility of planktonic cultures to antibiotics with or without V9T14 (MIC by OD650, MBC by viable cell count); type: cell-based, Escherichia coli; conditions: for change of MBC99.99% by V9T14 / effect of V9T14 on planktonic killing: 5 μg/mL V9T14; for MIC / MBC: Escherichia coli; for MBC: read-out: MBC99.99%, Ab; for concentration at which complete eradication of planktonic cells was observed: antibiotic plus 5 μg/mL V9T14; for MBC99.99%, AbBs: antibiotic plus 5 μg/mL V9T14 biosurfactant; for increase of planktonic killing by V9T14: at 2 μg/mL antibiotic
Protocol: (§1) Antibiotics were serially diluted (log2) using 0.9% saline in a 96-well microtiter plate, and then a solution of biosurfactant was added to each well to reach a final concentration of 5 μg/mL.
(§2) E. coli CFT073 biofilms were grown on the CBD at 37° C. for 24 h in a rotatory shaker at 130 rpm, as described above. Then CBD lid was rinsed twice with 0.9% saline, exposed to the antibiotics and antibiotic plus biosurfactant microtiter plate and incubated at 37° C., 125 rpm for 24 h. After exposure, the CBD was removed and the 96-well microtiter plate was used to estimate minimal inhibitory concentration (MIC) and minimal bactericidal concentration (MBC99.99%) values. For MIC value, the plate was read using a spectrophotometer at 650 nm, MIC was defined as the lowest concentration not presenting turbidity; according to the guidelines of the American Clinical Laboratory Standards Institute, the minimum bactericidal concentration (MBC) is conventionally defined as a concentration of an antimicrobial agent that kills 3 log10 cells of a bacterial culture (or 99.9% of the bacteria). In our experiments we used a more restrictive criterion, defining the MBC99.99% value, defined as the lowest concentration of the antibiotic activity higher than 4 log10 by viable cell count. Minimal biofilm eradication concentration (MBEC99.9%) was defined as the lowest concentration to eradicate 3 log10 of the viable microorganisms in a biofilm.
(§3) The difference attributed to synergy is expressed in Δ values between the log10 antibiotic cell count reduction and the log10 association value. “Eradication” was defined as no growth in antibiotic-free plates after planktonic culture initially incubated in antibiotic-containing LB broth.

E. coli CFT073 biofilm = assay: Susceptibility of 24 h biofilm on CBD to antibiotics with or without V9T14 (MBEC, viable cell count, CLSM); type: cell-based, Escherichia coli; conditions: for MBEC99.9%, Ab: 3 log10 reduction; for MBEC99.9%, AbBs: antibiotic plus 5 μg/mL V9T14 biosurfactant
Protocol: as §1, §2
Pegs were broken from the lid of the CBD using pliers (Harrison et al. 2006) and then rinsed once with 0.9% saline to remove planktonic forms. Prior to examination by CLSM, biofilms were fluorescently stained with acridine orange (AO) (Sigma Chemical Co., St. Louis, Mo., USA). To stain biofilms, pegs were immersed in 0.1% w/v AO in PBS for 5 min at room temperature in the dark. To determine live and dead cell distribution in antibiotic experiments, rinsed biofilms were stained with Syto-9 (6.7 μM) and propidium iodide (40 μM) (Live/Dead® BacLight™ Kit, Molecular Probes, Burlington, ON, Canada) at 30° C. for 30 min. Fluorescently stained biofilms were placed in two drops of 0.9% saline on the surface of a glass coverslip. These pegs were examined using a Leica DM IRE2 spectral confocal and multiphoton microscope with a Leica TCS SP2 acoustic optical beam splitter (AOBS) (Leica Microsystems, Richmond Hill, ON, Canada). To minimize or eliminate artefacts associated with single and/or simultaneous dual wavelength excitation, all dual labelled samples were sequentially scanned, frame-by frame, first at 476 or 488 nm and then at 543 nm. Fluorescence emission Δ was then sequentially collected in the green and red regions of the spectrum, respectively. Line averaging (×2) was used to capture images with reduced noise. A 63× water immersion objective was used in all imaging experiments. Image capture and two dimensional projections of z-stacks were performed using Leica Confocal Software (LCS, Leica Microsystems).
as §3

[2] = 24 h, antibiotic alone, 24 h, OD650, read-out: MIC, Ab
[3] = antibiotic without V9T14 (figure legend), read-out: MIC value used in FIG. 21
[4] = antibiotic alone, 24 h, 4 log10 reduction

Row | SMILES | change of MBC99.99% by V9T14 [1] | MIC [1, 2] [µg/mL] | MIC [1, 3] [µg/mL] | MBC [1, 4] [µg/mL] | concentration at which complete eradication of planktonic cells was observed [1] [µg/mL] | MBC99.99%, AbBs ([1]; 24 h) [µg/mL] | biofilm reduction (E. coli CFT073 biofilm; antibiotic alone at 4 μg/mL) [log10] | MBEC99.9%, Ab (E. coli CFT073 biofilm; antibiotic alone, 24 h) [µg/mL] | MBEC99.9%, AbBs (E. coli CFT073 biofilm; 24 h) [µg/mL] | MIC, Ab ([1]; antibiotic alone, 24 h, OD650) [µg/mL] | planktonic population reduction ([1]; antibiotic alone at 1 μg/mL) [log10] | increase of planktonic killing by V9T14 [1] [log10] | effect of V9T14 on planktonic killing [1] | change of MBEC99.9% by V9T14 (E. coli CFT073 biofilm; 5 μg/mL V9T14) | further results
1 | CC1(C)S[C@@H]2[C@H](NC(=O)[C@H](N)c3ccccc3)C(=O)N2[C@H]1C(=O)O [Ampicillin, ampicillin] | not modified | 2 to 4 | 2 | 1 to 2 | 8 | 1 to 2 | 3 | 4 | 0.5 to 1 |  |  |  |  |  | surviving planktonic population ([1]; antibiotic alone up to 16 μg/mL): 10^2 cfu/mL; increase of planktonic killing efficacy by V9T14 ([1]; concentration not given): 2 log10; surviving biofilm population (E. coli CFT073 biofilm; 1 μg/mL antibiotic plus V9T14): 10^1 cfu/peg; biofilm subpopulation remaining viable (E. coli CFT073 biofilm; antibiotic alone, 24 h): 10^3 cfu/peg; concentration at which sessile forms were eradicated (E. coli CFT073 biofilm; antibiotic plus V9T14): 8 µg/mL; effect on adherent biofilm cells (E. coli CFT073 biofilm; association of V9T14 with the antibiotic): complete eradication; enhancement of antibiotic effect on biofilm by V9T14 (E. coli CFT073 biofilm; at 1 μg/mL antibiotic): 4 log10
2 | Cc1nnc(SCC2=C(C(=O)O)N3C(=O)[C@@H](NC(=O)Cn4cnnn4)[C@H]3SC2)s1 [Cefazolin, cefazolin] |  |  | 8 | 16 | 32 | 8 |  |  | 8 | 1 to 2 |  |  |  |  | maximum planktonic killing effect ([1]; 32 μg/mL antibiotic plus V9T14): 8.4 log10; MIC ([1]; 24 h, antibiotic plus 5 μg/mL V9T14, 24 h, OD650, read-out: MIC with V9T14): 8 µg/mL; planktonic killing ([1]; antibiotic alone at 16 μg/mL): more than 4 log10 cfu/mL; maximum planktonic killing effect ([1]; antibiotic alone at 32 μg/mL): 6.9 log10; MIC, Ab ([1]; antibiotic alone, 24 h, OD650, listed as cefazolin): 16 µg/mL; biofilm reduction (E. coli CFT073 biofilm; antibiotic alone, up to highest concentration tested): about 2.2 log10
3 | CO/N=C(\C(=O)N[C@@H]1C(=O)N2C(C(=O)O)=C(CSc3nc(=O)c(O)nn3C)CS[C@H]12)c1csc(N)n1 [Cefriaxone, ceftriaxone] | not modified |  |  |  | 2 | 0.5 to 1 |  | 1 to 2 | 0.5 to 1 | 1 to 2 | 7 | 1.7 |  |  | planktonic population reduction ([1]; antibiotic alone at 0.5 μg/mL): 3 log10; MBC99.99%, Ab [1, 4]: 0.5 to 1 µg/mL; MIC value used in FIG. 21 ([1]; antibiotic without V9T14 (figure legend)): 1 µg/mL; final enhancement of biofilm removal by V9T14 (E. coli CFT073 biofilm; 2 μg/mL antibiotic): 1.2 log10; enhancement of biofilm removal by V9T14 (E. coli CFT073 biofilm; 0.25-0.5 μg/mL antibiotic): 0.6 log10; biofilm reduction (E. coli CFT073 biofilm; antibiotic alone at 1 μg/mL): 3 log10; further increase of biofilm removal by V9T14 (E. coli CFT073 biofilm; for 2 μg/mL antibiotic, on top of the 0.25-0.5 μg/mL increase): 0.6 log10
4 | O=C(O)c1cn(C2CC2)c2cc(N3CCNCC3)c(F)cc2c1=O [Ciprofloxacin, ciprofloxacin] | not modified | 8 to 16 |  | 0.25 to 0.5 |  | 0.25 to 0.5 |  |  |  |  | 6.8 | 1.4 |  |  | 
5 | CCN1CCN(C(=O)N[C@@H](C(=O)N[C@@H]2C(=O)N3[C@@H]2SC(C)(C)[C@@H]3C(=O)O)c2ccccc2)C(=O)C1=O [Piperacillin, piperacillin] | not affected | > 32 | 32 | > 32 |  | >32 | 1 | >32 | >32 |  |  |  | no improvement | not affected | planktonic population reduction ([1]; antibiotic alone at 4 μg/mL): 2.7 log10; effect of V9T14 on biofilm killing (E. coli CFT073 biofilm; 5 μg/mL V9T14): no improvement; synergy with V9T14 (criterion ≧1 log10 decrease) (E. coli CFT073 biofilm; 24 h exposure): not able to satisfy our discrimination criterion for synergy identification
6 | NC[C@H]1O[C@H](O[C@H]2[C@H](O)[C@@H](O[C@H]3O[C@H](CO)[C@@H](O)[C@H](N)[C@H]3O)[C@H](N)C[C@@H]2N)[C@H](N)C[C@@H]1O [Tobramycin, tobramycin] | not modified | 16 to 32 | 16 | 8 to 16 |  | 8 to 16 |  | 2 to 4 | 2 to 4 |  |  |  | no increase of activity | not modified | planktonic growth, OD650 ([1]; 4 μg/mL antibiotic alone): 0.31; planktonic growth, OD650 ([1]; 4 μg/mL antibiotic plus 5 μg/mL V9T14): 0.18; concentration giving complete eradication of planktonic population ([1]; antibiotic alone): 16 µg/mL; planktonic population reduction ([1]; antibiotic alone up to 8 μg/mL): 1 log10; increased efficacy against sessile forms by V9T14 (E. coli CFT073 biofilm; 16 μg/mL antibiotic): 1 log10; effect on mature biofilm by CLSM (Live/Dead) (E. coli CFT073 biofilm; 16 μg/mL antibiotic alone): significant killing of biofilm population; mature biofilm reduction by CLSM (Live/Dead) (E. coli CFT073 biofilm; 16 μg/mL antibiotic plus 5 μg/mL V9T14): further increased; biofilm survival subpopulation (E. coli CFT073 biofilm; antibiotic alone at 8-16 μg/mL): about 10^2 cfu/mL; biofilm decrease (E. coli CFT073 biofilm; antibiotic alone, stabilizing at 8-16 μg/mL): 4 log10
